Experimental data published in patent publication US20240116946A1 (Gilead Sciences, Inc., priority 2022, published 2024).
pEC50, pIC50: −log10 of the molar value. Read-outs that look alike come from different tables or passages of the source.

Columns and labels:
[1] = molecular target: recombinant SARS-CoV-2 Main protease (Mpro) (Severe acute respiratory syndrome coronavirus 2 (2019-nCoV) (SARS-CoV-2), UniProt P0DTD1); assay: Cov Mpro Biochemical IC50 Assay; settings: read-out: MPro IC50
SARS-CoV-2-NLuc = assay: microbe, parasite or virus in culture; format: cell-based, SARS Coronavirus 2
[2] = recombinant SARS-CoV-2 Mpro 7.5 nM, fluorogenic peptide substrate 40 μM
[3] = Severe acute respiratory syndrome coronavirus, 48 h, read-out: MPro EC50
[4] = Severe acute respiratory syndrome coronavirus, 48 h; read-out: MPro EC50
[5] = recombinant SARS-CoV-2 Mpro, fluorogenic peptide substrate

Compound | pIC50 [1, 2] | pEC50 (SARS-CoV-2-NLuc; [3]) | pEC50 (SARS-CoV-2-NLuc; [4]) | pIC50 [1, 5] | pEC50 (SARS-CoV-2-NLuc; read-out: MPro EC50)
COc1ccc(Cl)c(-c2cc3[nH]c(=O)n(-c4cncc5c(F)cccc45)c(=O)c3s2)c1 [Example 585] | 7.99 | 7.53 |  |  | 
COc1cc(-c2cc3c(s2)c(=O)n(-c2cncc4ccsc24)c(=O)n3CCC#N)c(Cl)cc1F [Example 654] | 8.41 | 8.62 |  |  | 
COc1ccc(C#N)c(-c2cc3[nH]c(=O)n(-c4cncc5ccc(N6CCn7nc(C(F)(F)F)nc7C6)cc45)c(=O)c3s2)c1 [Example 605] | 8.00 | 7.04 |  |  | 
COc1cc(-c2cc3[nH]c(=O)n(-c4cncc5nccn45)c(=O)c3s2)c(Cl)cc1F [Example 978] | 7.48 |  | 6.43 |  | 
Cn1nnc2cncc(-n3c(=O)c4sc(-c5cc(F)c(F)cc5Cl)cc4n(CCC#N)c3=O)c21 [Example 796] | 7.39 |  | 6.91 |  | 
N#CCCn1c(=O)n(-c2cncc3ccccc23)c(=O)c2sc(-c3ccccc3Cl)cc21 [Example 818, 3-(6-(2-chlorophenyl)-3-(isoquinolin-4-yl)-2,4-dioxo-3,4-dihydrothieno[3,2-d]pyrimidin-1(2H)-yl)propanenitrile] | 8.12 | 8.21 |  |  | 
COc1ccc(C#N)c(-c2cc3[nH]c(=O)n(-c4cncc5ccccc45)c(=O)c3cc2F)c1 [Example 428, 2-(6-fluoro-3-(isoquinolin-4-yl)-2,4-dioxo-1,2,3,4-tetrahydroquinazolin-7-yl)-4-methoxybenzonitrile] | 7.99 | 7.75 |  |  | 
COc1cc(-c2cc3c(s2)c(=O)n(-c2cncc(OC4CC4)c2)c(=O)n3CCC#N)c(Cl)cc1F [Example 953] | 8.08 | 7.44 |  |  | 
O=c1[nH]c2cc(-c3c(Cl)cccc3OCc3cscn3)ccc2c(=O)n1-c1cncc2ccccc12 [Example 86, 7-[2-chloro-6-(thiazol-4-ylmethoxy)phenyl]-3-(4-isoquinolyl)-1H-quinazoline-2,4-dione] |  |  |  | 6.95 | 6.84
COc1cc(-c2cc3[nH]c(=O)n(-c4cncc5c(C#N)nn(C)c45)c(=O)c3s2)c(Cl)cc1F [Example 977] | 7.67 | 7.00 |  |  | 
COc1cc(-c2cc3[nH]c(=O)n(-c4cncc5ccc(C(C)(C)O)cc45)c(=O)c3s2)c(Cl)cc1F [Example 551, 6-(2-chloro-4-fluoro-5-methoxyphenyl)-3-(6-(2-hydroxypropan-2-yl)isoquinolin-4-yl)thieno[3,2-d]pyrimidine-2,4(1H,3H)-dione] | 8.27 | 7.63 |  |  | 
COc1cc(-c2cc3c(s2)c(=O)n(-c2cncc4ccccc24)c(=O)n3CC#N)c(Cl)cc1F (single isomer, unassigned) [Example 634, 2-[6-(2-chloro-4-fluoro-5-methoxy-phenyl)-3-(4-isoquinolyl)-2,4-dioxo-thieno[3,2-d]pyrimidin-1-yl]acetonitrile] | 7.54 |  |  |  | 7.51
5-fluoro-2-[6-fluoro-3-(4-isoquinolyl)-2,4-dioxo-1H-quinazolin-7-yl]-4-methoxy-benzonitrile [Example 517] | 8.02 |  |  |  | 7.45
COc1cc(-c2cc3c(s2)c(=O)n(-c2cncc4ccncc24)c(=O)n3CCC#N)c(Cl)cc1F (single isomer, unassigned) [Example 1097, 3-[6-(2-chloro-4-fluoro-5-methoxy-phenyl)-3-(2,6-naphthyridin-4-yl)-2,4-dioxo-thieno[3,2-d]pyrimidin-1-yl]propanenitrile] | 7.37 |  |  |  | 7.48
COc1cc(-c2cc3[nH]c(=O)n(-c4cncc5cnn(CC(F)(F)F)c45)c(=O)c3s2)c(Cl)cc1F [Example 507] | 7.73 | 7.41 |  |  | 
Cn1nncc1-c1cccc(Cl)c1-c1ccc2c(=O)n(-c3cncc4ccccc34)c(=O)[nH]c2c1 [Example 567, 7-[2-chloro-6-(3-methyltriazol-4-yl)phenyl]-3-(4-isoquinolyl)-1H-quinazoline-2,4-dione] | 7.29 |  |  |  | 6.64
N#Cc1cc(F)ccc1-c1cc2[nH]c(=O)n(-c3cncc4ccccc34)c(=O)c2s1 [Example 534] | 7.51 | 7.09 |  |  | 
O=c1[nH]c2cc(-c3ccccc3Cl)sc2c(=O)n1-c1cncc2nccn12 [Example 135] |  | 6.54 |  | 7.29 | 
CCn1cc(-c2cccc(Cl)c2-c2ccc3c(=O)n(-c4cncc5ccccc45)c(=O)[nH]c3c2)c(C)n1 [Example 275] |  | 7.75 |  | 7.63 | 
O=c1[nH]c2cc(-c3ccccc3Cl)sc2c(=O)n1-c1cncc2cnccc12 [Example 584] | 7.89 | 7.50 |  |  | 
O=c1[nH]c2cc(-c3c(Cl)cccc3-c3cnn4c3CNCC4)ccc2c(=O)n1-c1cncc2ccccc12 [Example 474] | 7.85 | 6.91 |  |  | 
COc1cc(-c2cc3[nH]c(=O)n(-c4cncc5sc(C(N)=O)c(C)c45)c(=O)c3s2)c(Cl)cc1F [Example 1049] | 8.50 | 7.39 |  |  | 
O=c1[nH]c2cc(-c3ccccc3Cl)ccc2c(=O)n1-c1cnccc1N1CCNCC1 [Example 116, 7-(2-chlorophenyl)-3-(4-(piperazin-1-yl)pyridin-3-yl)quinazoline-2,4(1H,3H)-dione] |  |  | 5.50 | 6.10 | 

Compound | pIC50 [1, 2] | pEC50 (SARS-CoV-2-NLuc; [3]) | pEC50 (SARS-CoV-2-NLuc; [4]) | pIC50 [1, 5] | pEC50 (SARS-CoV-2-NLuc; read-out: MPro EC50)
Cn1ncc2cncc(-n3c(=O)c4sc(-c5cc(F)ccc5Cl)cc4n(CC#N)c3=O)c21 [Example 664] | 8.28 | 7.94 |  |  | 
O=c1[nH]c2cc(-c3c(Cl)cccc3OCc3cscn3)ccc2c(=O)n1-c1cncc2ccccc12 [Example 471, 7-[2-chloro-6-(thiazol-4-ylmethoxy)phenyl]-3-(4-isoquinolyl)-1H-quinazoline-2,4-dione] | 7.01 |  |  |  | 6.32
COc1cc(-c2cc3c(s2)c(=O)n(-c2cncc4ccccc24)c(=O)n3CC2(C#N)CCC2)c(Cl)cc1F [Example 690] | 7.33 | 7.01 |  |  | 
O=c1[nH]c2cc(-c3ncco3)sc2c(=O)n1-c1cncc2ccccc12 [Example 166, 3-(isoquinolin-4-yl)-6-(oxazol-2-yl)thieno[3,2-d]pyrimidine-2,4(1H,3H)-dione] |  | 5.35 |  | 6.03 | 
O=c1[nH]c2cc(-c3c(Cl)cccc3OCc3cccnn3)ccc2c(=O)n1-c1cncc2ccccc12 [Example 302] |  | 6.97 |  | 7.52 | 
Cc1cc(Cl)c(-c2cc3c(s2)c(=O)n(-c2cncc4cnn(C)c24)c(=O)n3CCC#N)cc1Cl [Example 1024] | 8.01 | 7.45 |  |  | 
Cn1cc(-c2cccc(Cl)c2-c2cc3[nH]c(=O)n(-c4cncc5ccccc45)c(=O)c3s2)c(C(F)(F)F)n1 (single isomer, unassigned) [Example 448, 6-(2-chloro-6-(1-methyl-3-(trifluoromethyl)-1H-pyrazol-4-yl)phenyl)-3-(isoquinolin-4-yl)thieno[3,2-d]pyrimidine-2,4(1H,3H)-dione] | 6.42 |  |  |  | 6.42
COc1cc(Cl)c(-c2cc3[nH]c(=O)n(-c4cncc5ccccc45)c(=O)c3s2)cc1OC [Example 343] |  | 8.11 |  | 8.40 | 
COc1ccc(C#N)c(-c2cc3[nH]c(=O)n(-c4cncc5ccccc45)c(=O)c3cc2OC)c1 [Example 312] |  | 7.69 |  | 7.85 | 
COc1cc(Cl)c(-c2cc3[nH]c(=O)n(-c4cncc5ccccc45)c(=O)c3s2)cc1C [Example 723] | 7.67 | 7.77 |  |  | 
COc1cccc(C#N)c1-c1cc2c(s1)c(=O)n(-c1cncc3ccccc13)c(=O)n2CCC#N [Example 820] | 8.24 | 7.48 |  |  | 
Cn1cncc1-c1cccc(Cl)c1-c1cc2[nH]c(=O)n(-c3cncc4ccccc34)c(=O)c2s1 [Example 525] | 7.98 | 7.09 |  |  | 
COc1cc(-c2cc3c(s2)c(=O)n(-c2cc(C)cnc2F)c(=O)n3CCC#N)c(Cl)cc1F [Example 770] | 8.21 |  | 8.32 |  | 
COc1cc(-c2cc3c(s2)c(=O)n(-c2cncc(C)c2)c(=O)n3CCC#N)c(Cl)cc1F [Example 981] | 8.86 | 8.86 |  |  | 
COc1ccc(C#N)c(-c2cc3[nH]c(=O)n(-c4cncc5c(Cl)cccc45)c(=O)c3s2)c1 [Example 594] | 6.05 | 6.03 |  |  | 
COc1cnc(Cl)c(-c2cc3c(s2)c(=O)n(-c2cncc(C)c2)c(=O)n3CCC#N)c1 [Example 885] | 8.12 |  | 7.64 |  | 
COc1cc(-c2cc3[nH]c(=O)n(-c4cncc5ccncc45)c(=O)c3s2)c(Cl)cc1F [Example 739] | 8.02 |  | 7.76 |  | 
Cc1nc(Cl)ccc1-c1cc2[nH]c(=O)n(-c3cncc4ccccc34)c(=O)c2s1 [Example 288] |  | 5.98 |  | 6.64 | 
COc1cc(-c2cc3c(s2)c(=O)n(-c2cncc4ccccc24)c(=O)n3Cc2cc(F)c(F)c(F)c2)c(Cl)cc1F [Example 1099, 6-(2-chloro-4-fluoro-5-methoxy-phenyl)-3-(4-isoquinolyl)-1-[(3,4,5-trifluorophenyl)methyl]thieno[3,2-d]pyrimidine-2,4-dione] | 6.41 |  | 6.04 |  | 
O=c1[nH]c2cc(-c3ccccc3Cl)sc2c(=O)n1-c1cnccc1N1CCOCC1 [Example 139] |  | 6.23 |  | 6.96 | 
Cn1ncc2cncc(-n3c(=O)c4sc(-c5cc(F)c(F)cc5Cl)cc4n(CCC#N)c3=O)c21 [Example 790, 3-[6-(2-chloro-4,5-difluoro-phenyl)-3-(1-methylpyrazolo[4,3-c]pyridin-7-yl)-2,4-dioxo-thieno[3,2-d]pyrimidin-1-yl]propanenitrile] | 7.90 | 7.84 |  |  | 
COc1cc(-c2cc3c(s2)c(=O)n(-c2cncc4nc(-c5ccc(F)cc5)n(C)c24)c(=O)n3CCC#N)c(Cl)cc1F [Example 758] | 7.72 | 6.85 |  |  | 
Cc1nn(CC(F)(F)F)cc1-c1cccc(Cl)c1-c1ccc2c(=O)n(-c3cncc4ccccc34)c(=O)[nH]c2c1 [Example 285] |  | 7.59 |  | 7.72 | 
